# Results reported in ChEMBL document CHEMBL1149627, “Erythrocarpines A-E, new cytotoxic limonoids from Chisocheton erythrocarpus” (Bioorg Med Chem, 2007).
# System: P388
# Test: Cytotoxicity against mouse P388 cells by MTT assay
# Type: functional, cell-based
row,SMILES,IC50 [µg/mL]
1,CO[C@@]12[C@H](COC(N)=O)C3=C(C(=O)C(C)=C(N)C3=O)N1C[C@@H]1N[C@@H]12 [MITOMYCIN],0.15
2,COC(=O)C[C@H]1[C@@]2(C)CO[C@]3(O)[C@@H](C=C4[C@H](CC[C@@]5(C)[C@H](c6ccoc6)OC(=O)C[C@@]45O)[C@]13C)[C@H]2OC(=O)/C=C/c1ccccc1 [ERYTHROCARPINE E],16
3,COC(=O)C[C@H]1C(C)(C)[C@H](OC(=O)c2ccccc2)[C@@H]2C=C3C4=CC(=O)O[C@@H](c5ccoc5)[C@]4(C)CC[C@@H]3[C@@]1(C)C2=O [ERYTHROCARPINE A],2
4,COC(=O)C[C@H]1C(C)(C)[C@H](OC(=O)c2ccccc2)[C@@H]2C=C3[C@H](CC[C@@]4(C)[C@H](c5ccoc5)OC(=O)C[C@@]34O)[C@@]1(C)C2=O [ERYTHROCARPINE B],6
5,COC(=O)C[C@H]1C(C)(C)[C@H](OC(=O)/C=C/c2ccccc2)[C@@H]2C=C3[C@H](CC[C@@]4(C)[C@H](c5ccoc5)OC(=O)C[C@@]34O)[C@@]1(C)C2=O [ERYTHROCARPINE C],9.9
6,COC(=O)C[C@H]1[C@@]2(C)CO[C@]3(O)[C@@H](C=C4C5=CC(=O)O[C@@H](c6ccoc6)[C@]5(C)CC[C@@H]4[C@]13C)[C@H]2OC(=O)/C=C/c1ccccc1 [ERYTHROCARPINE D],10
